Reference: US10852236B2, “Method of measuring plant nutrient transport using near-infrared imaging” (Curadel, LLC, priority 2017, dated 2020)

Experiments:
[1] = in vivo early half-life of the dye; conditions: dye in its small molecule form
[2] = solubility of the dye in the plant nutrient; type: physicochemical; conditions: dye in its small molecule form; nutrient may be water

## CC1(C)C(/C=C/C=C/C=C/C=C2\N(CCCCS(=O)(=O)O)c3ccc4ccccc4c3C2(C)C)=[N+](CCCCS(=O)(=O)[O-])c2ccc3ccccc3c21 [Indocyanine green, indocyanine green]
[1]
  in vivo early half-life: shorter
[2]
  solubility in the nutrient: somewhat less soluble
